This note sets out measurements from ChEMBL document CHEMBL1201862, “PubChem BioAssay data set” (2004).

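Five concentrations, 48 hours, 96-well plates. At the GI50, growth is halved.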 The source made the active and inactive calls. No stated cut-off is given here; in the data, active = GI50 up to about 1.1 µM and inactive = higher.

Test systems include K562; HT-29; KM12; SK-MEL-2; NCI/ADR-RES; HL-60; HOP-92; NCI-H460; NCI-H522; LOX IMVI; COLO 205; BT-549; UO-31; MOLT-4; OVCAR-4; 786-0; EKVX; HOP-62; SF-539; HCC 2998.
What all share (assay): NCI-60 cell line screen, 48 h

As for `CN(C)Cc1c[nH]c2ncnc(O)c12`, the GI50 in the assay with K562 is 20.7 µM (inactive); in the assay on HT-29, 28.2 µM (inactive); in the assay with KM12 it was > 100 µM (inactive); in the assay with SK-MEL-2, 43.6 µM (inactive); with NCI/ADR-RES it was 62.7 µM (inactive); in the assay on HL-60, 19.7 µM (inactive). Besides, the GI50 was 38.9 µM (inactive) with HOP-92; 26.2 µM (inactive) with NCI-H460; > 100 µM (inactive) in the assay with NCI-H522; 19 µM (inactive) in the assay on LOX IMVI; 35.8 µM (inactive) in the assay on COLO 205; > 100 µM (inactive) in the assay with BT-549. Besides, the GI50 in the assay with UO-31 was 62.2 µM (inactive); with MOLT-4 it was 7.8 µM (inactive); in the assay with OVCAR-4, 32.8 µM (inactive); in the assay on 786-0, 23.2 µM (inactive); with EKVX, 98.2 µM (inactive); in the assay with HOP-62, > 100 µM (inactive). The GI50 in the assay on SF-539 is 22.4 µM (inactive).

For `CCOn1cc(C[C@@]2(O)C(=O)OC3[C@@H](O)CO[C@@]32O)c2ccccc21` (some centres not stated), the GI50 in the assay on K562, in the assay with HT-29, in the assay with KM12, in the assay with SK-MEL-2, with NCI/ADR-RES and with HL-60 was > 100 µM (inactive) throughout. In addition, the GI50 in the assay with HOP-92, in the assay with NCI-H460, in the assay on NCI-H522, in the assay with LOX IMVI, in the assay on COLO 205 and in the assay with BT-549 was > 100 µM (inactive) each time. The GI50 with UO-31 was > 100 µM (inactive); with MOLT-4 it was > 100 µM (inactive); with OVCAR-4 it was > 100 µM (inactive); in the assay on 786-0, 94.4 µM (inactive); in the assay on EKVX, > 100 µM (inactive); in the assay on HOP-62, > 100 µM (inactive). In addition, in the assay on SF-539, the GI50 was > 100 µM (inactive).

On to `Cc1c(/C=N/NC(=S)Nc2ccc(Cl)cc2)c(=O)n(-c2ccccc2)n1C`, for which the GI50 in the assay with K562 is > 100 µM (inactive); with HCC 2998, > 100 µM (inactive); in the assay with HT-29 it was > 100 µM (inactive); in the assay on KM12, > 47.6 µM (inactive); with SK-MEL-2 it was 21.6 µM (inactive); in the assay with NCI/ADR-RES, 17.3 µM (inactive). Besides, the GI50 in the assay with HL-60 is > 100 µM (inactive); with NCI-H460, 25.4 µM (inactive); with NCI-H522 it was 7.08 µM (inactive); in the assay on LOX IMVI it was 32.6 µM (inactive); in the assay with COLO 205 it was > 71.1 µM (inactive); with BT-549, 0.0258 µM (active). The GI50 in the assay on UO-31 is 32.1 µM (inactive); in the assay on MOLT-4, > 60.8 µM (inactive); with OVCAR-4, 24.5 µM (inactive); in the assay with 786-0, 16.3 µM (inactive); with EKVX, 22.6 µM (inactive); in the assay with HOP-62, 14.3 µM (inactive). Besides, the GI50 with SF-539 was 15 µM (inactive).

Turning to `Cn1c(=O)c2sc3cc4c(cc3c2c2ccccc21)sc1c(=O)n(C)c2ccccc2c14`, the GI50 in the assay on K562 is > 10 µM (inactive); with HCC 2998 it was > 100 µM (inactive); in the assay on HT-29 it was > 100 µM (inactive); in the assay with KM12, > 100 µM (inactive); with SK-MEL-2, > 100 µM (inactive); in the assay with NCI/ADR-RES, > 100 µM (inactive). Also, the GI50 in the assay on HL-60 is > 100 µM (inactive); in the assay on HOP-92 it was 23.9 µM (inactive); in the assay with NCI-H460 it was 52.4 µM (inactive); with NCI-H522, 34.2 µM (inactive); with COLO 205 it was > 100 µM (inactive); in the assay with BT-549, 19.8 µM (inactive). The GI50 was 74.8 µM (inactive) in the assay with UO-31; 78.2 µM (inactive) with MOLT-4; > 100 µM (inactive) in the assay on OVCAR-4; 31.8 µM (inactive) with 786-0; > 100 µM (inactive) in the assay on EKVX; 19.9 µM (inactive) in the assay with HOP-62. The GI50 in the assay on SF-539 is 76 µM (inactive).

As for `NC1=CN2c3ccccc3N(CC(=O)O)C2C=C1` (configuration not stated), the GI50 with K562, with HCC 2998, with HT-29, in the assay with KM12, in the assay on SK-MEL-2 and in the assay with NCI/ADR-RES was > 100 µM (inactive) throughout. Further, the GI50 in the assay on HL-60, in the assay with HOP-92, in the assay on NCI-H460, in the assay with LOX IMVI, with COLO 205 and with BT-549 was > 100 µM (inactive) in each case. Moreover, the GI50 in the assay with UO-31, with MOLT-4, with OVCAR-4, in the assay on 786-0, in the assay on EKVX and in the assay on HOP-62 was > 100 µM (inactive) in each case. For the same molecule, in the assay on SF-539, the GI50 was > 100 µM (inactive).

Regarding `CCOC(=O)Oc1cc2c(c(OC)c1OC)-c1ccc(SC)c(=O)cc1C(NC(=O)C(F)(F)F)CC2` (configuration not stated), the GI50 in the assay with K562 was < 0.001 µM (active); with HCC 2998, 0.0435 µM (active); with HT-29 it was < 0.001 µM (active); in the assay with KM12, 0.00258 µM (active); in the assay with NCI/ADR-RES, 0.0102 µM (active); in the assay on HL-60, < 0.001 µM (active). The GI50 in the assay with HOP-92 is 0.00604 µM (active); in the assay with NCI-H460, 0.00199 µM (active); in the assay on NCI-H522 it was < 0.001 µM (active); in the assay with LOX IMVI it was 0.00177 µM (active); with COLO 205 it was 0.0577 µM (active); in the assay on BT-549 it was 0.1 µM (active). Also, the GI50 is 0.244 µM (active) in the assay with UO-31; 0.00117 µM (active) with MOLT-4; 2.01 µM (inactive) in the assay with OVCAR-4; 0.0017 µM (active) in the assay on 786-0; 0.201 µM (active) in the assay with EKVX; 0.00191 µM (active) in the assay on HOP-62.

As for `O=C1c2c(O)cccc2Cc2cc(CO)cc(O)c21`, the GI50 in the assay with K562 was 1.99 µM (inactive); with HCC 2998, 2.66 µM (inactive); with HT-29, 3.48 µM (inactive); in the assay with NCI/ADR-RES it was 3.59 µM (inactive); with HL-60, 0.684 µM (active); with HOP-92, 1.61 µM (inactive). The GI50 with NCI-H460 was 0.619 µM (active); in the assay with COLO 205 it was 1.87 µM (inactive); in the assay with BT-549 it was 2.01 µM (inactive); in the assay on UO-31, 1.89 µM (inactive); in the assay on MOLT-4, 2.96 µM (inactive); in the assay on OVCAR-4 it was 1.07 µM (active). The GI50 in the assay with 786-0 was 3.21 µM (inactive); in the assay on EKVX it was 3.03 µM (inactive); in the assay on HOP-62, 3.01 µM (inactive).

In the case of `COc1cc(-c2oc3c(OC)c(O)c(OC)c(O)c3c(=O)c2OC)ccc1O`, the GI50 in the assay on K562 was 58.6 µM (inactive); with HCC 2998 it was 45.3 µM (inactive); in the assay with HT-29, 68.1 µM (inactive); in the assay on KM12, > 100 µM (inactive); in the assay on SK-MEL-2 it was 24.8 µM (inactive); with NCI/ADR-RES, 50.8 µM (inactive). Besides, the GI50 with HL-60 is 33.5 µM (inactive); with NCI-H460, 46.1 µM (inactive); in the assay on NCI-H522, 29.1 µM (inactive); in the assay on LOX IMVI, 26.9 µM (inactive); in the assay on COLO 205, > 100 µM (inactive); in the assay with BT-549, 37.9 µM (inactive). The GI50 is 31.6 µM (inactive) with UO-31; 95.5 µM (inactive) in the assay with MOLT-4; 74.1 µM (inactive) in the assay on OVCAR-4; 38.1 µM (inactive) with 786-0; 78.7 µM (inactive) in the assay with EKVX; 23.1 µM (inactive) in the assay on HOP-62. Moreover, in the assay on SF-539, the GI50 is 40.4 µM (inactive).
